These results are taken from patent US5594009A, “Fused pyrrolocarbazoles” (priority 1995, dated 1997).

Test [1] concerns ChAT activity of basal forebrain cultures. The test can be described thus: Basal Forebrain ChAT Activity Assay. It counts as cell-based, rat. The procedure, abridged: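 Basal forebrain neurons from E17–18 rat embryos were Dispase-dissociated and plated at 5×10^4 cells/well on poly-ornithine/laminin. Cultures were kept in serum-free N2 medium with 0.05% BSA at 37° C. ChAT activity was measured 5 days after plating as the read-out for compound-induced increase.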

Test [2] has as its system indoleamine 2,3-dioxygenase (IDO) mRNA in THP-1 cells. The test can be described thus: Inhibition of Induction By IFNγ of IDO mRNA. The test is classed as cell-based. Particulars: Homo sapiens, compound 400 nM, IFNγ 400 units/ml, IDO/GAPD mRNA ratio, 48 hours, read-out: IDO mRNA, Phosphorimager units, % of IFNγ-treated cells. How it is done: Fused pyrrolocarbazoles in accordance with our invention were tested for their ability to inhibit the induction by IFNγ of indoleamine 2,3-dioxygenase (IDO) mRNA in THP-1 cells, a human monocyte cell line.
Cell Culture: THP-1 cells (American Type Culture Collection, Rockville, Md.), a human monocytic leukemia cell line, were grown in RPMI 1640 medium (Mediatech, Herndon Valley, Va.) with 50 μM 2-mercaptoethanol and 10% fetal bovine serum. Cells were plated in T75 culture flasks, at 4×10^4 cells/cm^2 in 10 ml of medium, and were immediately treated with fused pyrrolocarbazoles at various concentrations. After 30 minutes recombinant (E. coli) IFNγ (Boehringer Mannheim Corporation,Indianapolis, Ind.) was added at 200-400 units/ml. Cells were incubated (37° C., 5% CO2 /95% Air) for 48 hours after treatment.
RNA Isolation: Cells were pelleted by centrifugation (50× g, 7 min.) and medium was decanted. The cells were then washed two times with phosphate buffered saline pH 7.2 (PBS) (Mediatech, Herndon Valley, Va.). The washed cell pellet was lysed in 2 ml RNAzol B (Tel-Test, Inc., Friendswood, Tex.). RNA was isolated by chloroform extraction, precipitated, and washed following the "RNAzol B isolation of RNA" protocol accompanying this product. RNA was then solubilized in H2 O, and the concentration and purity were determined by reading the absorbance at A260 nm and A280 nm. Finally, the RNA was reprecipitated in ethanol, overnight at -20° C.
cDNA Probes: Indoleamine 2,3-dioxygenase (IDO) cDNA was received from Sohan L. Gupta, Ph. D. (Hipple Cancer Research Center, Dayton, Ohio) (see Da., W. & Gupta, S. L. 168 Biochem. Biophys. Res. Commun. 1, 1990 and Hassanain, H. H. et al. 268 J. Biol. Chem. 5077, 1993). Glyceraldehyde-3-phosphate dehydrogenase (GAPD) cDNA was obtained through American Type Culture Collection (Rockville, Md.). These cDNA's were produced and purified using standard methods (see, Sambrook, Fritsch, Maniatis (1989) Molecular Cloning a Laboratory Manual/Second Edition 1, 1.21-1.24, 1.74-1.81, hereinafter in this Example, "Maniatis a") using Qiagen plasmid purification kits (Qiagen Inc., Chatsworth, Calif.). DNA concentration and purity were determined by absorbance at 280 nm and 260 nm. Specific DNA inserts were cut out by standard methods using restriction enzymes, and subsequently separated on agarose gels as in Maniatis (see, Sambrook, Fritsch, Maniatis (1989) Molecular Cloning a Laboratory Manual/Second Edition 1, 6.9-6.15, hereinafter in this Example, "Maniatis b"). cDNA probes were further purified for [^32 P] labeling using the Geneclean II DNA purification kit (BIO 101, Inc., La Jolla, Calif.). Probes were labeled with dCTP-α-^32 P (Amersham Corp., Arlington Heights, Ill.) by random primer labeling, using the Prime-a-GeneLabeling System (Promega Corp., Madison, Wis.).
Analysis and quantification of mRNA: IDO mRNA was detected by Northern blot analysis (see Maniatis a, p. 7.39-7.51) using standard methods. […] Quantification of IDO mRNA was carried out using a phosphorimager (Molecular Dynamics) in which density (i.e., amount of RNA) is expressed as relative phosphorimager units. […] GAPD mRNA measurement by phosphorimager quantification of Northern blots serves as a means to normalize for potential sample to sample differences in the amount of total RNA loaded on gels. […]

Regarding `O=C1NCc2c1c1c(c3[nH]c4ccccc4c23)Cc2ccccc2-1` [Compound I-2], the “ChAT Activity (% of Control)” value in test [1] (100 nM) and in test [1] (1000 nM) was “inactive” throughout. The activity at 0.25 µM in test [1] (Rattus norvegicus, 120 h, 250 nM, read-out: ChAT Activity (% of Control)) is 137%. Moreover, the activity at 0.5 µM in test [1] (Rattus norvegicus, 120 h, 500 nM, read-out: ChAT Activity (% of Control)) was 137%. Besides, the mrna remaining at 0.4 µM in test [2] came out at 55%.
